Measurements as given in paper PMC4671658, “Release of 50 new, drug-like compounds and their computational target predictions for open source anti-tubercular drug discovery” (PLoS ONE, 2015).
≈ marks a conversion by molar mass, not a printed value.

Tested on: clinical isolate of M.tuberculosis resistant to isoniazid

O=C(NCc1ccco1)N1CCN(Cc2ccc(Cl)s2)CC1 [TCMDC-143653]
MIC against clinical isolate resistant to isoniazid: 1.6 µM (≈ 0.544 µg/mL)
